Test results published in ChEMBL document CHEMBL1146677, “Orally active anti-proliferation agents: novel diphenylamine derivatives as FGF-R2 autophosphorylation inhibitors” (Bioorg Med Chem Lett, 2004).
In brackets after ≈: the same amount, converted by molar mass. Activity calls are given as the source filed them.

Columns and labels:
[1] = Solubility after at a pH 1.2; type: physicochemical; details: buffer, read-out: Activity
[2] = target: T1, Fibroblast growth factor receptor 2 (Homo sapiens, UniProt P21802); experiment: Ex vivo inhibition of fibroblast growth factor receptor (FGF-R2) autophosphorylation 5 hr after the oral administration at 100 mg/kg; type: functional, organism-based; set-up: dose 100 mg/kg
Target sequence in this assay (P21802 22-821 limits assumed): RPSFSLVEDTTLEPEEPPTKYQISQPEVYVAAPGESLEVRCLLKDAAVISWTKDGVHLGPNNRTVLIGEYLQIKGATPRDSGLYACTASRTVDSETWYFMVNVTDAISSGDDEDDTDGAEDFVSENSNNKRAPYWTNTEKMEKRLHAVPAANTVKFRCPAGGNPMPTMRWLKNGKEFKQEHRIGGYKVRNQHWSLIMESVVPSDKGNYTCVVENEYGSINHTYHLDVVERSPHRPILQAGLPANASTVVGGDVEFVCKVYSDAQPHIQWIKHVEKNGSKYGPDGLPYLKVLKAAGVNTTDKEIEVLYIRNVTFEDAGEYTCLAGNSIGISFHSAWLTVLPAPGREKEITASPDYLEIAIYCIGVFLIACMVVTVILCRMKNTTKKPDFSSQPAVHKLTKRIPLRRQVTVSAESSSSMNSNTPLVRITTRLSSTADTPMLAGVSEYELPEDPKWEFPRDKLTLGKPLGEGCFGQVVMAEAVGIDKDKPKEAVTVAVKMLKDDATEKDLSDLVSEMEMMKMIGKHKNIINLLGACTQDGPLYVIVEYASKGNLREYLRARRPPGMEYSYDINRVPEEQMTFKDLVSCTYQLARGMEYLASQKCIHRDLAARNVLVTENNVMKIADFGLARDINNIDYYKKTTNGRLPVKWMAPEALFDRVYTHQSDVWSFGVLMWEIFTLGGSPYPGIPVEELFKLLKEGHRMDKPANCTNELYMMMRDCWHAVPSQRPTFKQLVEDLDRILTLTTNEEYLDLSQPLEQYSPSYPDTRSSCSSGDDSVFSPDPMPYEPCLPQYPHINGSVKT

[3] = target: T1, Fibroblast growth factor receptor 2; experiment: In vitro inhibition against autophosphorylation of Fibroblast growth factor receptor 2 in the human scirrhous gastric carcinoma cell line
Target sequence in this assay (P21802 whole entry): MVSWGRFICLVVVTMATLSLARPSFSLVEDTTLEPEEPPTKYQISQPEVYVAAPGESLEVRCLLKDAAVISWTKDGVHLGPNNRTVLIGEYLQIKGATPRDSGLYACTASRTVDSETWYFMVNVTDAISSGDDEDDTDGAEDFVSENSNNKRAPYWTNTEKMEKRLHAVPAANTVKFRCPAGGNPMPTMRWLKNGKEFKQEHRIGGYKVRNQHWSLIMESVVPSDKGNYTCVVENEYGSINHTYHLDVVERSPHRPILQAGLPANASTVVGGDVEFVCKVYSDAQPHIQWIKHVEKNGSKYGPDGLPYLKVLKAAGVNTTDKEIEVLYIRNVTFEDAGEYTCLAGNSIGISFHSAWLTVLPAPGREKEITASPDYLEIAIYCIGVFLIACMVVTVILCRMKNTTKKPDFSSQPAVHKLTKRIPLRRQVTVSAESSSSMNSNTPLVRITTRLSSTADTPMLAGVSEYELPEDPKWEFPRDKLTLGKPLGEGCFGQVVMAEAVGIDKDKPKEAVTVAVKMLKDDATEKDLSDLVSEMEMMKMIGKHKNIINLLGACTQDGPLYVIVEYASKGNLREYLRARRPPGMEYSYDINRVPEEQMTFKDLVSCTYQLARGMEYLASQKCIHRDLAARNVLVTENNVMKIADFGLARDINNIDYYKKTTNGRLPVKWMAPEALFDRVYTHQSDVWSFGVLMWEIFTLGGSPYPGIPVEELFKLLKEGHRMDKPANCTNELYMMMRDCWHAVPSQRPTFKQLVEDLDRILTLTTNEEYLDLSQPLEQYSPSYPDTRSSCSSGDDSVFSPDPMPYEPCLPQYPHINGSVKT

[4] = organism: Rattus norvegicus; experiment: Percent remaining after incubation with rat liver microsomes for 10 min; type: functional
[5] = Solubility after at pH 1.2; type: physicochemical; details: buffer, read-out: Activity
[6] = Solubility after injection of water; type: physicochemical; details: read-out: Activity
[7] = target: T2, Epidermal growth factor receptor (Homo sapiens, UniProt P00533); experiment: Inhibition of EGF-receptor autophosphorylation in intact cells at 10 uM (inactive); type: cell-based
T2 sequence (P00533 whole entry): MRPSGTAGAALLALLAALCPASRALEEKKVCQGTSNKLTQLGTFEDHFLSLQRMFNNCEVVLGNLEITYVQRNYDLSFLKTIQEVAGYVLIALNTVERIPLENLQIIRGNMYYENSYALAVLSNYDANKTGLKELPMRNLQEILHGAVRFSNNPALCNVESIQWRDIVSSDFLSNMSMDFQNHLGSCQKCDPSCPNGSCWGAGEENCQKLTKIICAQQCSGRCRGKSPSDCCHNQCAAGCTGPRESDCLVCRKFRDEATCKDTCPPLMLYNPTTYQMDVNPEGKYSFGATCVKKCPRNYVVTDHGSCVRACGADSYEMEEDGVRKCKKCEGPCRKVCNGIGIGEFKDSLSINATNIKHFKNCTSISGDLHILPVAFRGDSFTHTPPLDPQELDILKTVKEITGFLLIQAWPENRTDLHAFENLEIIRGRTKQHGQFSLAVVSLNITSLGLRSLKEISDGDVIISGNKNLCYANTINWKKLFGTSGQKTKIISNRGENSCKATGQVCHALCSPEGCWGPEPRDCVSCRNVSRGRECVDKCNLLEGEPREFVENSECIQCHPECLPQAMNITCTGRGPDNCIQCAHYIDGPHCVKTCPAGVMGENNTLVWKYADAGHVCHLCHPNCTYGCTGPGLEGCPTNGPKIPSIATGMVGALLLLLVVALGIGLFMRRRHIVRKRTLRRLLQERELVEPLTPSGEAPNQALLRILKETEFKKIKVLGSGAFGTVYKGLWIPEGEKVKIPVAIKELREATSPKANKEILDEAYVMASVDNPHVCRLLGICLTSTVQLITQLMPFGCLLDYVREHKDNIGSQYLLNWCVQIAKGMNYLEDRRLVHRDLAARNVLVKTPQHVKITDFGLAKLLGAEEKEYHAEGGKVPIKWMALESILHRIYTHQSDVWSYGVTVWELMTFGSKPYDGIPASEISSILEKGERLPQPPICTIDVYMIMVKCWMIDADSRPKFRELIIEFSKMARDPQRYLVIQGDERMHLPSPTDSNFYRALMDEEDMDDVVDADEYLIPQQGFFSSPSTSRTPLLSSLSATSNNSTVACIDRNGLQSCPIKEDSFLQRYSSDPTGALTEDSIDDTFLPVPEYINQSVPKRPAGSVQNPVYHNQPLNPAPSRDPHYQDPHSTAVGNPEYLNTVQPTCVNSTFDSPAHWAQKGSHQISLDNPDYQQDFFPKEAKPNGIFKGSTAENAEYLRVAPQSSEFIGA

[8] = target: T2, Epidermal growth factor receptor; experiment: Inhibition of EGF-receptor autophosphorylation in intact cells; type: cell-based
[9] = organism: Homo sapiens; experiment: Percent remaining after incubation with human liver microsomes for 10 min; type: functional
[10] = organism: Homo sapiens; experiment: Percent remaining after incubation with human liver microsomes for 40 min; type: functional
[11] = target: T3, Insulin-like growth factor 1 receptor (Homo sapiens, UniProt P08069); experiment: Inhibition of IGF-receptor 1 autophosphorylation in intact cells at 10 uM (inactive); type: cell-based
[12] = target: T3, Insulin-like growth factor 1 receptor; experiment: Inhibition of IGF-receptor 1 autophosphorylation in intact cells; type: cell-based
[13] = target: Platelet-derived growth factor receptor (Homo sapiens, UniProt P09619+P16234); experiment: Inhibition of PDGF-receptor autophosphorylation in intact cells; type: cell-based
[14] = organism: Rattus norvegicus; experiment: Percent remaining after incubation with rat liver microsomes for 40 min; type: functional
[15] = target: Mast/stem cell growth factor receptor Kit (Homo sapiens, UniProt P10721); experiment: Inhibition of c-Kit autophosphorylation in intact cells; type: cell-based
[16] = target: T4, Hepatocyte growth factor receptor (Homo sapiens, UniProt P08581); experiment: Inhibition of c-Met autophosphorylation in intact cells at 10 uM (inactive); type: cell-based
T4 sequence (P08581 whole entry): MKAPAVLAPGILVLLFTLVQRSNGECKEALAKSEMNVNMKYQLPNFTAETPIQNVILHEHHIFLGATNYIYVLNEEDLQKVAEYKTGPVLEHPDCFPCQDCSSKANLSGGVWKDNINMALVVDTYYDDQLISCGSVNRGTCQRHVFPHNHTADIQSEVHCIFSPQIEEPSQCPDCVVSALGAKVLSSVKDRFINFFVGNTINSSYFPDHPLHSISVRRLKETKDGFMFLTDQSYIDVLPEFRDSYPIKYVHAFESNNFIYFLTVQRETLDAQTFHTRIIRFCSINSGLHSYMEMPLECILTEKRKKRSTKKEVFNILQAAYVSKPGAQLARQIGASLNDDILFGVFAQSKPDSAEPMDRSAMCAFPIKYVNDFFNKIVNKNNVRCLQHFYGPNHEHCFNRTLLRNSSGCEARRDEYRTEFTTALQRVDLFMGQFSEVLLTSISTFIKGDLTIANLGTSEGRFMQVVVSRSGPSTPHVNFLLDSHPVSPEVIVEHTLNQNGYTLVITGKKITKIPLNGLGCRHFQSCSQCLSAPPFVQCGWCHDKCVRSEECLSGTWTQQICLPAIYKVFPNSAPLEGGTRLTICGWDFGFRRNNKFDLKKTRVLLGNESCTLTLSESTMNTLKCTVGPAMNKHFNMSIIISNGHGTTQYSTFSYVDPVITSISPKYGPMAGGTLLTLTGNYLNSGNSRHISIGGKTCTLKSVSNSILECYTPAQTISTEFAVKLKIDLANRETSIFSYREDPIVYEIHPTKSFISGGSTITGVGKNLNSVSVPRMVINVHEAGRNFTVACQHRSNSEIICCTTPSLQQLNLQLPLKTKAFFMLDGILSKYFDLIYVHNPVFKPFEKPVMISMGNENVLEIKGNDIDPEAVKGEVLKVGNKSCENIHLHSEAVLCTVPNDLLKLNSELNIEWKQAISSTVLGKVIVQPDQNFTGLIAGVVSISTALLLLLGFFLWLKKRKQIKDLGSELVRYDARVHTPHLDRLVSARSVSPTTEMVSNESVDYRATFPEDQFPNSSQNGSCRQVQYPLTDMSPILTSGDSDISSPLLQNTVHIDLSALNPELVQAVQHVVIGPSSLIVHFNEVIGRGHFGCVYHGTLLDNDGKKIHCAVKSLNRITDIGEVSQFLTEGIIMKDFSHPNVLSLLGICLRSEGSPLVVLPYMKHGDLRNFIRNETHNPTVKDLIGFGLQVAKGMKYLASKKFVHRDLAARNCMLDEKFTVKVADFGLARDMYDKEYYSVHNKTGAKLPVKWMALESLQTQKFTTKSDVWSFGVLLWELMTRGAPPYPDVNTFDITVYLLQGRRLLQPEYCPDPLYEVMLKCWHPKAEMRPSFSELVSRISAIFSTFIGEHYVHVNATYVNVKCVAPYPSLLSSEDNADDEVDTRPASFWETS

[17] = target: T4, Hepatocyte growth factor receptor; experiment: Inhibition of c-Met autophosphorylation of in intact cells; type: cell-based
[18] = target: Vascular endothelial growth factor receptor 2 (Homo sapiens, UniProt P35968); experiment: Inhibition of vascular endothelial growth factor receptor 2 autophosphorylation in intact cells; type: cell-based

| SMILES | IC50 [3] | Metabolism [4] | other results |
| --- | --- | --- | --- |
| COc1cc2nccc(Oc3ccc(Nc4ccc(C(C)(C)C)cc4)cc3)c2cc1OC | 40 nM |  | solubility [1]: 3 µg/mL (≈ 7 µM); inhibition [2]: 70% |
| COc1cc2nccc(Oc3ccc(Nc4cccc(-c5ccccc5)c4)cc3)c2cc1OC | > 10000 nM |  |  |
| COc1cc2nccc(Oc3ccc(Nc4ccc(C(C)(C)C)cc4)c(F)c3)c2cc1OC | 63 nM |  |  |
| COc1cc2c(Oc3ccc(Nc4ccc(C(C)(C)C)cc4)cc3)ccnc2cc1OCC(O)CN1CCOCC1 (stereo unspecified) | 71 nM | 72% |  |
| COc1cc2c(Oc3ccc(Nc4ccc(C(C)(C)C)cc4)cc3F)ccnc2cc1OCCNCCO | 70 nM | 60% |  |
| COc1cc2nccc(Oc3ccc(Nc4ccccc4)cc3)c2cc1OC | 8900 nM |  |  |
| COc1cc2c(Oc3ccc(Nc4ccc(C(C)(C)C)cc4)cc3)ccnc2cc1OCCN1CCC(CO)CC1 | 23 nM | 51% |  |
| COc1cc2c(Oc3ccc(Nc4ccc(C(C)(C)C)cc4)cc3)ccnc2cc1OCCN1CCOCC1 | 200 nM | 9% |  |
| COc1cc2c(Oc3ccc(Nc4ccc(C(C)(C)C)cc4)cc3)ccnc2cc1OCCNCCO | 88 nM | 97% | solubility [5]: 802 µg/mL (≈ 1600 µM); solubility [6]: 108 µg/mL (≈ 215 µM); Activity [7]: inactive; IC50 [8]: > 10000 nM; Metabolism [9]: 99%; Metabolism [10]: 89%; Activity [11]: inactive; IC50 [12]: > 10000 nM; IC50 [13]: 100 nM; Metabolism [14]: 78%; IC50 [15]: 480 nM; Activity [16]: inactive; IC50 [17]: > 10000 nM; IC50 [18]: 83 nM |
| COc1cc2nccc(Oc3ccc(C(=O)c4ccc(C(C)(C)C)cc4)cc3)c2cc1OC | 190 nM |  | inhibition [2]: 3% |
| COc1cc2nccc(Oc3ccc(Cc4ccc(C(C)(C)C)cc4)cc3)c2cc1OC | > 1000 nM |  | inhibition [2]: 5% |
| COc1cc2c(Oc3ccc(Nc4ccc(C(C)(C)C)cc4)c(F)c3)ccnc2cc1OCCNCCO | 260 nM | 92% |  |
| COc1cc2nccc(Oc3ccc(Oc4ccc(C(C)(C)C)cc4)cc3)c2cc1OC | 440 nM |  |  |
| COc1cc2nccc(Oc3ccc(Nc4ccc(C(C)(C)C)cc4)c(C)c3)c2cc1OC | 100 nM |  |  |
| COc1ccc(Nc2ccc(Oc3ccnc4cc(OC)c(OC)cc34)cc2)cc1 | 780 nM |  |  |
| COc1cc2c(Oc3ccc(Nc4ccc(C(C)(C)C)cc4)cc3)ccnc2cc1OCC(O)CN1CCCCC1 (stereo unspecified) | 200 nM | 78% |  |
| COc1cc2nccc(Oc3ccc(Nc4ccc(C(C)(C)C)cc4)cc3C)c2cc1OC | > 10000 nM |  |  |
| COc1cc2c(Oc3ccc(Nc4ccc(C(C)(C)C)cc4)cc3)ccnc2cc1OCCN(CCO)CCO | 71 nM | 46% |  |
| COc1cc2nccc(Oc3ccc(NC4CCC(C(C)(C)C)CC4)cc3)c2cc1OC (stereo unspecified) | 3400 nM |  |  |
| COc1cc2nccc(Oc3ccc(Nc4ccc(C(C)(C)C)cc4)c(C(F)(F)F)c3)c2cc1OC | > 10000 nM |  |  |
| COc1cc2c(Oc3ccc(Nc4ccc(C(C)(C)C)cc4)cc3)ccnc2cc1OCCCN1CCCCC1 | 350 nM | 28% |  |
| COc1cc2nccc(Oc3ccc(Nc4ccc(C(C)(C)C)cc4)cc3F)c2cc1OC | 54 nM |  |  |
| COc1cc2nccc(Oc3ccc(Nc4ccc(C(C)C)cc4)cc3)c2cc1OC | 200 nM |  |  |
| COc1cc2nccc(Oc3ccc(Nc4ccc(C(C)(C)C)cc4)c(C)c3C)c2cc1OC | 130 nM |  |  |
